Data on 61 molecules can be found in the METLIN SMRT retention time set (Domingo-Almenara et al. 2019).

This data set can be described thus: gradient 5% acetonitrile 3 min, to 50% in 2 min, to 85% in 15 min, held 3 min, 100 µL/min. The conditions noted are these: column: Zorbax Extend-C18 2.1 x 50 mm; eluents: water / acetonitrile, 0.1% formic acid. The gist of the method: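 Using water and acetonitrile that each contained 0.1% formic acid, mixtures of ~100 pure standards were separated at 100 μL/min on a Zorbax Extend-C18 column (2.1 × 50 mm, 1.8 μm). The HPLC fed a quadrupole time-of-flight mass spectrometer working in positive and negative ionization mode, with dead and dwell volumes of 40 μL and 900 μL. Data were acquired over 3 months. Retention time was read from computationally picked adduct peaks after manual inspection of each.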
The molecule `Cc1noc(-c2nn(C)c3c2CN(C(=O)c2cccc(Br)c2)CC3)n1` came in with an RP-LC retention time of 783 s.
Regarding `COc1ccc(-c2cn3c(CC(=O)NC4CCCC4)csc3n2)cc1OC`, the RP-LC retention time is 660 s.
For `Cc1ccc(-c2cn3cccc(C)c3n2)cc1NS(=O)(=O)c1ccc(Br)cc1`, the RP-LC retention time is 737 s.
With `COc1ccc(Cl)cc1S(=O)(=O)N1CCC(c2cc3n(n2)CCCNC3=O)CC1` the figure was 722 s; with `COc1cc(NC(=O)CCc2c(C)nn3cnnc3c2C)cc(OC)c1`, 662 s.
With `CCOC(=O)c1c(C)[nH]c(C)c1S(=O)(=O)N1CCC(C(=O)NCCN2CCCCCC2)CC1` the figure was 592 s; with `COc1ccccc1OCCNc1nc2ccncc2n(C(C)C)c1=O`, 573 s.
Molecule `COc1ccccc1CNc1ncnc(N)c1[N+](=O)[O-]` registered an RP-LC retention time of 735 s.
With `CC(C)C(=O)Nc1ccc(-n2cnc(C(=O)N3CCSCC3)c2)nc1` the figure was 679 s; with `Cc1nn(-c2cc(N(C)C)ncn2)c(C)c1CCC(=O)NCc1ccco1`, 684 s; with `COc1ccc(Cl)c2c(=O)c3c([nH]c12)CCN(CC(=O)Nc1cc(C)ccc1C)C3`, 649 s.
In the case of `CCOc1ccc(C(=O)NC2CCN(c3cc(-c4ccccc4)[nH]n3)C2)cc1OCC` (stereo unspecified), the RP-LC retention time stood at 748 s.
With `Cc1cc2nn(CC(=O)Nc3cccc(C)c3C)c(=O)n2c(-c2ccc(F)cc2)n1` the figure was 849 s; with `O=C1NC2CCCCC2NC1CC(=O)N1CCN(C(c2ccccc2)c2ccccc2)CC1` (stereo unspecified), 586 s; with `Cc1ccc(F)cc1NC(=O)Cn1cnc(C)c(C)c1=O`, 660 s.
With `Cc1ccc(NC(=O)c2nc(C)oc2C)c(C)c1` the figure was 753 s; with `CN1CCC(NC(=O)c2ccc(-n3cc(CNC(=O)C4CCC4)cn3)cc2)CC1`, 585 s; with `CC(C)CC(=O)N[C@H](Cc1ccccc1)C(=O)NCc1cscn1`, 699 s.
On to `CNC(=O)c1c(C)c(-c2ccccc2)n(C)c1C`, for which the RP-LC retention time stood at 812 s.
`Cn1c(C(=O)NCCCN2CCCC2=O)cc2c(-c3cccs3)nn(-c3ccccc3)c21` returned an RP-LC retention time of 831 s.
As for `Cn1ccc2ccn(CC(=O)Nc3ccccc3)c(=O)c21`, the RP-LC retention time came to 737 s.
With `O=C(Cn1nc2c(Oc3ccc(Cl)cc3)nccn2c1=O)Nc1ccc(F)c(Cl)c1` the figure was 990 s.
Take `CCOCCCNC(=O)c1ccc(-c2ccc3c(c2)CCN3C(C)=O)cc1`: the RP-LC retention time was found to be 598 s.
On to `O=C(c1ccco1)N1CCC(Oc2nc3ccc(F)cc3s2)CC1`, for which the RP-LC retention time was found to be 902 s.
As to `CCc1ccc(CNC(=O)c2cc3c(=O)n(C)c(=O)n(C)c3s2)cc1`, the RP-LC retention time stood at 830 s.
With `Cc1ccc(-c2nc3n(CC(=O)N4CCCCC4C)c4c(c(=O)n3n2)CCC4)cc1` (stereo unspecified) the figure was 1040 s; with `O=C(Cn1cnc2nc(N3CCOCC3)ncc2c1=O)NCc1cccc(C(F)(F)F)c1`, 687 s.
With `CCCc1c(C(=O)O)nnn1-c1ccc(Cl)cc1` the figure was 778 s; with `COc1cccc(C(=O)N2CCN(c3nc4ccccc4n(C)c3=O)CC2)c1`, 877 s.
With `Cc1ccc(S(=O)(=O)CCc2noc(-c3cccc4[nH]ccc34)n2)cc1` the figure was 887 s; with `CCc1ccc(NC(=O)Cn2c(=O)cc(-c3nc(C4CC4)no3)c3ccccc32)cc1`, 1050 s.
The molecule `CC(=O)N=c1sc(S(N)(=O)=O)nn1C` yielded an RP-LC retention time of 644 s.
With `Cc1ncc2c(n1)CCCN(CC(=O)NC1CC1)C2=O` the figure was 567 s.
As to `O=C(CSc1ccc(N2CCCC(C(=O)NC3CC3)C2)nn1)Nc1ccccc1F` (stereo unspecified), the RP-LC retention time was 643 s.
With `O=C(Cn1ccnc1-c1ccnc(N2CCSCC2)c1)N1CCN(c2ccccc2)CC1` the figure was 697 s; with `COc1ccccc1CC(=O)N1CCCC1c1cc(C)on1` (stereo unspecified), 761 s.
With `CN(CC(=O)N1CCN(c2ccc(Cl)cc2)CC1)S(=O)(=O)c1ccc2c(c1)CCCC(=O)N2` the figure was 828 s; with `CCC(C)NC(=O)c1ccc(NC(=O)C2CC2)cc1N1CCCCCC1` (stereo unspecified), 738 s.
Take `c1cc(-c2nnc3sc(-c4csc5c4CCCC5)nn23)ccn1`: the RP-LC retention time stood at 993 s.
`COc1ccc(OC)c(S(=O)(=O)NCCN2CCN(c3ccccc3F)CC2)c1` gave an RP-LC retention time of 588 s.
With `CCN1CCCN(C(=O)C2(c3ccc(OC)cc3)CC2)CC12CCOCC2` the figure was 620 s; with `O=C(Cn1c(=O)n(-c2ccccc2)c2ncccc21)NCCN1CCOCC1`, 585 s.
With `O=C(Cn1cccc1-c1nc(-c2ccccc2)cs1)N1CCC(N2CCCCC2)CC1` the figure was 716 s; with `COc1ccc(NC(=O)Cn2cccc2-c2nc(-c3ccc4c(c3)OCO4)no2)c(OC)c1`, 1040 s.
With `CCCCN(C)C(=O)Cn1c(C2CC(=O)N(Cc3ccccc3)C2)nc2ccccc21` (stereo unspecified) the figure was 742 s; with `Cc1nnc2c(NC(=O)C3CCCC3)cccn12`, 644 s.
`O=C(NC1CCCCCC1)C1CC(=O)N(CCc2c[nH]c3ccc(F)cc23)C1` (stereo unspecified) came in with an RP-LC retention time of 812 s.
Molecule `Cc1ccc(-c2nc(Cn3cccc3C(=O)N3CCCC3)no2)cc1` displayed an RP-LC retention time of 972 s.
With `Cc1cc(C(=O)NCCN2CCN(C(=O)c3cccs3)CC2)c(C)o1` the figure was 563 s; with `O=C(Nc1ccccc1F)c1cc(C2CC2)on1`, 655 s; with `Cn1cc(S(=O)(=O)N2CCC(C(=O)NCc3ccccc3Cl)CC2)cc1C(=O)N1CCCC1`, 752 s.
For `CC(C)CCN(CC(=O)N1CCNCC1)C(=O)c1cccc(Br)c1`, the RP-LC retention time was found to be 654 s.
With `O=C1CCN(C(=O)Nc2ccccc2)CCOCCN1` the figure was 613 s; with `CC(=O)OCCNc1nc(-c2ccccc2)nc2ccccc12`, 623 s.
With `CCOc1ccc(-c2ccc3nnc(SCC(=O)Nc4nc(C)cs4)n3n2)cc1` the figure was 752 s; with `Cc1ccc(NC(=O)N2CCC(N3CCN(Cc4ccccc4)C3=O)CC2)c(C)c1`, 843 s; with `CCOc1ccc2nc(NC(=O)C3CCN(C(=O)C4Sc5ccccc5NC4=O)CC3)sc2c1` (stereo unspecified), 826 s.
With `c1ccc(CN2CCN(Cc3cnoc3-c3ccccc3)CC2)cc1` the figure was 689 s.
`CN(C)CCCNC(=O)C1CCN(c2nc3ccc(-c4ccccc4F)nc3s2)CC1` yielded an RP-LC retention time of 649 s.
With `O=C(NCC1CCN(c2cc(-c3ccncc3)[nH]n2)CC1)c1ccc2c(c1)OCO2` the figure was 598 s.
With `CC(C)OC(=O)Cn1nc(-c2nc(-c3cccc(Cl)c3)no2)ccc1=O` the figure was 1100 s.
